Data published in BindingDB's records for PubMed 1320692 (Ciba-Geigy, 1992).
Values joined by “and” are separate entries in the source; they are usually repeats but may differ in a detail not shown here. Equal values may be shown once.

Biological target: T1, Leukotriene B4 receptor 2 (Homo sapiens, UniProt Q9NPC1)
T1 sequence (Q9NPC1 whole entry): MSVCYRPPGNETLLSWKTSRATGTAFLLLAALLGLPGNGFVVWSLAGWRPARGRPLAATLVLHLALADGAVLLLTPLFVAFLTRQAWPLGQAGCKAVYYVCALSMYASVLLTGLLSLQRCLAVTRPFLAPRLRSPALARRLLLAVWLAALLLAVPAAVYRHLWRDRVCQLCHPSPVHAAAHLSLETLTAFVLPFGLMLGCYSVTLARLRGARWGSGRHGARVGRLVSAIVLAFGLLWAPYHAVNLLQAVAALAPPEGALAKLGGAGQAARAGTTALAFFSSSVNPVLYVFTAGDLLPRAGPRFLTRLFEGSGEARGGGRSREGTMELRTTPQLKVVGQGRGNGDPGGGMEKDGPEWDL

Ki | SMILES
35 nM and 15 nM | COc1ccc(/C=C/CCCCOc2ccc(C(=O)c3cccc(C(=O)O)c3)cc2CCC(=O)O)cc1 [(Z)-3-{3-(2-Carboxy-ethyl)-4-[6-(4-methoxy-phenyl)-hex-5-enyloxy]-benzoyl}-benzoic acid]
885 nM | CCCCCCCCC(O)/C=C/c1cccc(C)n1 (centres undefined) [CGS 23114]
24 nM and 8 nM | COc1ccc(/C=C/CCCCOc2ccc(Oc3cccc(C(=O)O)c3)cc2CCC(=O)O)cc1 [CGS 23130]
293 nM and 364 nM | CCc1cc(C(C)=O)c(O)cc1OCCCCC(C)(C)c1nnn[nH]1 [CGS 23167]
